The assay addresses T1, human IDO1/HEK293 cells (Homo sapiens, UniProt P14902).
T1 construct: expressed in transfected cells
Nature of the assay: HEK Human IDO-1 cell-based IDO inhibition assay (kynurenine production). To be noted: HEK293 cells stably expressing human IDO1, 20 hours incubation, absorbance at 490 nm; read-out: HEK Human IDO-1 Bio Activity (IDO IC50). How it is done: They were cultured in medium (DMEM with 10% FBS) containing 1 mg/ml G418 for two weeks.
The human IDO1/HEK293 cells were seeded at 10,000 cells per 50 μL per well with RPMI/phenol red free media contains 10% FBS in a 384-well black wall clear bottom tissue culture plate (Matrix Technologies LLC) 100 nL of certain concentration of compound was then added to each well using ECHO liquid handling systems. The cells were incubated for 20 hours in 37° C. incubator with 5% CO2.
The compound treatments were stopped by adding trichloroacetic acid (Sigma-Aldrich) to a final concentration at 0.2%. The cell plate was further incubated at 50° C. for 30 minute. The equal volume supernatant (20 μL) and 0.2% (w/v) Ehrlich reagent (4-dimethylaminobenzaldehyde, Sigma-Aldrich) in glacial acetic acid were mixed in a new clear bottom 384-well plate. This plate was then incubated at room temperature for 30 minute. The absorbance at 490 nm was measured on Envision plate reader.
T1 sequence (P14902 whole entry): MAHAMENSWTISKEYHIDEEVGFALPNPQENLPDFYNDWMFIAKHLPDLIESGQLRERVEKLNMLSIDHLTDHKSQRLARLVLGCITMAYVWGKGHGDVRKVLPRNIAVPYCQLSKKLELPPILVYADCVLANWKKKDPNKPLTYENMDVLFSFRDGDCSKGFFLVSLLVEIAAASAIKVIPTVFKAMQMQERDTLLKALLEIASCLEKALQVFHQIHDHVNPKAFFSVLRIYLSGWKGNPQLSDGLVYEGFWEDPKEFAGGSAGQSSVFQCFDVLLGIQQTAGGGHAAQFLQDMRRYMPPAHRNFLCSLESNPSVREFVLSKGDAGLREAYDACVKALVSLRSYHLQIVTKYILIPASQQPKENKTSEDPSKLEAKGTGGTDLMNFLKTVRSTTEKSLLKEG
In the case of “(R)-1-(cis-4-(6-fluoroquinolin-4-yl)cyclohexyl)-N-methylethanamine [Example 194]”, the IC50 was less than 50 nM. As to `O=C(Cc1ccc(Cl)cc1)N[C@H]1CC[C@H](c2ccnc3ccc(F)cc32)CC1` [Example 144, 2-(4-Chlorophenyl)-N-(trans-4-(6-fluoroquinolin-4-yl)cyclohexyl)acetamide], the IC50 is less than 2000 nM.

Consider `CCOc1ccc(C(=O)N[C@H](C)[C@H]2CC[C@@H](c3ccnc4ccc(F)cc43)CC2)nc1` [Example 163, 5-Ethoxy-N—((R)-1-(cis-4-(6-fluoroquinolin-4-yl)cyclohexyl)ethyl)picolinamide], for which the IC50 is less than 50 nM.

For the molecule `Cc1c(C2CCC(C(C)NC(=O)c3ccc(-c4ccccc4)cc3)CC2)ccnc1F` (stereo not shown) [Example 221, N-(1-(4-(2-fluoro-3-methylpyridin-4-yl)cyclohexyl)ethyl)-[1,1′-biphenyl]-4-carboxamide], the IC50 was less than 50 nM. For `Cc1cc(C2CCC(C(C)NC(=O)c3ccc(Cl)cc3)CC2)ccn1` (single isomer, unassigned) [Example 157d, 4-Chloro-N-(1-(4-(2-methylpyridin-4-yl)cyclohexyl)ethyl) Benzamide] the value was less than 2000 nM; for `Cc1c(C2CCC(C(C)NC(=O)c3ccc(-c4ccccc4)cc3)CC2)ccnc1F` (single isomer, unassigned) [Example 224, N-(1-(4-(2-fluoro-3-methylpyridin-4-yl)cyclohexyl)ethyl)-[1,1′-biphenyl]-4-carboxamide], less than 250 nM. Turning to `CC(NC(=O)c1ccc(Cl)cc1)C1CCC(c2ccc(C(F)(F)F)nc2)CC1` (single isomer, unassigned) [Example 218, 4-chloro-N-(1-(4-(6-(trifluoromethyl)pyridin-3-yl)cyclohexyl)ethyl)benzamide], the IC50 is less than 2000 nM. Then `O=C(NCC1CCN(c2ccnc3ccc(F)cc23)CC1)c1ccc(F)cc1` [Example 89], with less than 250 nM; and `Cc1nccc(OC2CCC(C(C)NC(=O)c3ccc(F)cc3)CC2)c1Cl` (racemic) [Example 208], with less than 250 nM; and `CC[C@H](NC(=O)c1ccc(Cl)cc1)[C@H]1CC[C@H](c2cnc3ccccc3c2)CC1` (single isomer, unassigned) [Example 203d], with less than 50 nM. For the molecule `CCC(NC(=O)c1ccc(C#N)cc1)C1CCC(c2ccnc3ccc(F)cc23)CC1` (single isomer, unassigned) [Example 165a, 4-Cyano-N-(1-(4-(6-fluoroquinolin-4-yl)cyclohexyl)propyl)benzamide], the IC50 was less than 2000 nM. Then `CCC(NC(=O)c1ccc(-c2ccccc2)cc1)C1CCC(c2ccnc3ccc(F)cc23)CC1` (stereo not shown) [Example 258, N-(1-(4-(6-fluoroquinolin-4-yl)cyclohexyl)propyl)bi-phenyl-4-carboxamide], with less than 50 nM; and `C[C@@H](NC(=O)c1ccc(-c2cnc(C#N)nc2)cc1)[C@H]1CC[C@@H](c2ccnc3ccc(F)cc32)CC1` [Example 240, 4-(2-cyanopyrimidin-5-yl)-N-((R)-1-((1s,4S)-4-(6-fluoroquinolin-4-yl)cyclohexyl)ethyl)benzamide], with less than 2000 nM. In the case of `COc1ccc(C(=O)NC(C)C2CCC(Oc3ccnc(C)c3Cl)CC2)cc1` (racemic) [Example 209], the IC50 is less than 250 nM. For `Cc1cc(C2CCC(C(C)NC(=O)c3ccc(Cl)cc3)CC2)ccn1` (stereo not shown) [Example 157a, 4-Chloro-N-(1-(4-(2-methylpyridin-4-yl)cyclohexyl)ethyl)benzamide] the value was less than 250 nM; for `O=C(Nc1ccc(Cl)cc1)[C@H]1CC[C@@H](c2ccnc3ccc(F)cc32)CC1` [Example 76, (cis)-N-(4-Chlorophenyl)-4-(6-fluoroquinolin-4-yl)cyclohexanecarboxamide], less than 2000 nM; for `C[C@@H](NC(=O)c1cccc(F)c1)[C@H]1CC[C@@H](c2ccnc3ccc(F)cc32)CC1` [Example 55, 3-fluoro-N-((R)-1-((1S,4S)-4-(6-fluoroquinolin-4-yl)cyclohexyl)ethyl)benzamide], less than 50 nM.

`C[C@@H](NC(=O)c1ccc(-c2cn(C)cn2)cc1)[C@H]1CC[C@@H](c2ccnc3ccc(F)cc32)CC1` [Example 235, N-((R)-1-((1s,4S)-4-(6-fluoroquinolin-4-yl)cyclohexyl)cthyl)-4-(1-methyl-1H-imidazol-4-yl)benzamide]: the IC50 is less than 50 nM.

On to `CC(NC(=O)c1ccc(Cl)cc1)C1CCC(c2ccc(C(F)(F)F)nc2)CC1` (stereo not shown) [Example 216, 4-chloro-N-(1-(4-(6-(trifluoromcthyr)pyridin-3-yl)cyclohexyl)ethyl)benzamide], for which the IC50 is less than 250 nM.

In the case of `C[C@@H](NC(=O)c1ccc(Cl)c(Cl)c1)[C@H]1CC[C@@H](c2ccnc3ccc(F)cc32)CC1` [Example 59, 3,4-dichloro-N-((R)-1-((1s,4S)-4-(6-fluoroquinolin-4-yl)cyclohexyl)ethyl)benzamide], the IC50 was less than 50 nM.

For the molecule `CCC(NC(=O)c1ccc(Cl)cc1)C1CCC(c2ccnc3ccc(F)cc23)CC1` (single isomer, unassigned) [Example 164b, 4-Chloro-N-(1-(4-(6-fluoroquinolin-4-yl)cyclohexyl)propyl)benzamide], the IC50 was less than 50 nM. In the case of `COc1ccc(CN[C@H]2CC[C@H](c3ccccc3)CC2)cc1` [Example 97, trans-N-(4-Methoxybenzyl)-4-phenylcyclohexanamine], the IC50 was less than 250 nM. Consider `Fc1ccc2nccc([C@H]3CC[C@@H](NCc4ccccc4)CC3)c2c1` [Example 131, cis-N-Benzyl-4-(6-fluoroquinolin-4-yl)cyclohexanamine], for which the IC50 was less than 250 nM.

Consider `O=C(Nc1ccc(Cl)cc1)N[C@H]1CC[C@H](c2ccnc3ccc(F)cc32)CC1` [Example 119, 1-(4-Chlorophenyl)-3-(trans-4-(6-fluoroquinolin-4-yl)cyclohexyl)urea], for which the IC50 was less than 50 nM. Then `COc1cccc(S(=O)(=O)N[C@H](C)[C@H]2CC[C@@H](c3ccnc4ccc(F)cc43)CC2)c1` [Example 45, N-((R)-1-((1s,4S)-4-(6-fluoroquinolin-4-yl)cyclohexyl)ethyl)-3-methoxybenzenesulfonamide], with less than 2000 nM; and `C[C@@H](NC(=O)c1ccccc1)[C@H]1CC[C@@H](c2ccnc3ccc(F)cc32)CC1` [Example 48, N-((R)-1-((1s,4S)-4-(6-fluoroquinolin-4-yl)cyclohexyl)ethyl)benzamide], with less than 50 nM; and `C[C@@H](NC(=O)c1ccc(-n2cccc2)cc1)[C@H]1CC[C@@H](c2ccnc3ccc(F)cc32)CC1` [Example 195, N-((R)-1-(cis-4-(6-fluoroquinolin-4-yl)cyclohexyl)ethyl)-4-(1H-pyrrol-1-yl)benzamide], with less than 50 nM. On to `C[C@@H](NS(=O)(=O)c1cccc(Cl)c1)[C@H]1CC[C@@H](c2ccnc3ccc(F)cc32)CC1` [Example 44, 3-chloro-N-((R)-1-((1s,4S)-4-(6-fluoroquinolin-4-yl)cyclohexyl)ethyl)benzenesulfonamide], for which the IC50 was less than 50 nM. Then `CC[C@@H](NC(=O)c1ccc(Cl)cc1)[C@H]1CC[C@@H](c2cnc3ccccc3c2)CC1` (single isomer, unassigned) [Example 203a], with less than 2000 nM; and `CCC(NC(=O)c1ccc(C#N)cc1)C1CCC(c2ccnc3ccc(F)cc23)CC1` (single isomer, unassigned) [Example 165d, 4-Cyano-N-(1-(4-(6-fluoroquinolin-4-yl)cyclohexyl)propyl)benzamide], with less than 50 nM; and `CC1(CNC(=O)c2ccc(-c3ccccc3)cc2)CCN(c2ccnc(C(F)(F)F)c2)CC1` [Example 228, N-((4-Methyl-1-(2-(trifluoromethyl)pyridin-4-yl)piperidin-4-yl)methyl)-[1,1′-biphenyl]-4-carboxamide], with less than 2000 nM. Then `C[C@@H](NC(=O)c1ccc(N2CCOCC2)cc1)[C@H]1CC[C@@H](c2ccnc3ccc(F)cc32)CC1` [Example 246, N-((R)-1-((1s,4S)-4-(6-fluoroquinolin-4-yl)cyclohexyl)ethyl)-4-morpholinobenzamide], with less than 250 nM; and `Cc1ccc(C(=O)NCC2CCN(c3ccnc4ccc(F)cc34)CC2)cc1` [Example 86, N-((1-(6-Fluoroquinolin-4-yl)piperidin-4-yl)methyl)-4-methylbenzamide], with less than 250 nM. As for `COc1nccc(-c2ccc(C(=O)N[C@H](C)[C@H]3CC[C@@H](c4ccnc5ccc(F)cc54)CC3)cc2)n1` [Example 236, N-((R)-1-((1s,4S)-4-(6-fluoroquinolin-4-yl)cyclohexyl)ethyl)-4-(2-methoxypyrimidin-4-yl)benzamide], the IC50 was less than 50 nM.

On to `Cc1cc(C2CCC(C(C)NC(=O)c3ccc(Cl)cc3)CC2)ccn1` (single isomer, unassigned) [Example 157e, 4-Chloro-N-(1-(4-(2-methylpyridin-4-yl)cyclohexyl)ethyl) Benzamide], for which the IC50 was less than 2000 nM.

Take `Cc1c(C2CCC(C(C)NC(=O)c3ccc(-c4ccccc4)cc3)CC2)ccnc1F` (single isomer, unassigned) [Example 222, N-(1-(4-(2-fluoro-3-methylpyridin-4-yl)cyclohexyl)ethyl)-[1,1′-biphenyl]-4-carboxamide]: the IC50 was less than 2000 nM. For `Cc1ccc(C(=O)N[C@H](C)[C@H]2CC[C@@H](c3ccnc4ccc(F)cc43)CC2)cc1` [Example 51, N-((R)-1-((1s,4S)-4-(6-fluoroquinolin-4-yl)cyclohexyl)ethyl)-4-methylbenzamide] the value was less than 50 nM.

Usually IC50 stands for the concentration at which inhibition is half-maximal.
